Legend:
[1] = molecular target: T1, CYCLIN K (nuclear staining in CAL-120 cells) (Homo sapiens, UniProt O75909); assay: CYCLIN K nuclear protein level: immunofluorescence high content analysis (CAL-120); format: cell-based; conditions: 24 h, 50% reduction of nuclear CCNK staining intensity, median, read-out: CYCLIN K degradation IF, DC50-[mol/l] (median)
T1 construct: endogenous in cells; host or cells: CAL-120 human breast cancer cells (DSMZ ACC 459)
In short: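 Readout is automated confocal image analysis of nuclear cyclin K immunofluorescence (Hoechst nuclei) after PFA fixation. Cells were CAL-120, exposed to compound dose-response 24 h at 37 °C; values are DC50 for halving nuclear CCNK signal relative to DMSO and control wells.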

CDK9/CycT1 = molecular target: T2, CDK9/CycT1 (Homo sapiens, UniProt P50750); assay: CDK9/CycT1 high ATP kinase assay (TR-FRET, 2 mM ATP); format: biochemical; conditions: 2 mM ATP (high ATP); median; read-out: CDK9/CyclinT1, 2 mM ATP (high ATP), IC50 (median)
T2 construct: Recombinant full-length His-tagged human CDK9 and CycT1; purchased Life Technologies PV4131; host or cells: insect cells
In short: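 Full-length His-tagged human CDK9/CycT1 (insect cell, ~0.5 μg/mL) preincubated 15 min at 22 °C with compound in Tris pH 8.0, MgCl2, DTT buffer before reaction with biotinylated peptide substrate at high ATP (2 mM).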

[2] = test system: BRCA1 mRNA expression in MDA-MB-231 cells; assay: qRT-PCR assay: BRCA1 mRNA expression in MDA-MB-231; format: cell-based, human; conditions: Homo sapiens, MDA-MB-231, Inhibition of BRCA1 mRNA expression in MDA-MB-231 cells; median; read-out: RTqPCR-MDA-MB-231, IC50, BRCA1 (median)
In short: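 BRCA1 transcript by RT-qPCR relative to GAPDH, from 600 ng RNA converted to cDNA. MDA-MB-231 cells plated at 200,000/well received test compound continuously for 24 h, starting 24 h post-seeding.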

[3] = molecular target: T3, CDK12 (nuclear staining in CAL-120 cells) (Homo sapiens, UniProt Q9NYV4); assay: CDK12 nuclear protein level: immunofluorescence/high content analysis (CAL-120); format: cell-based; conditions: for DC50: CAL-120 cells, 24 h, immunofluorescence, 50% reduction of nuclear CDK12 staining intensity, median, read-out: CDK12 degradation IF, DC50- [mol/l] (median); for (IC50 CDK12 high ATP) to (Degradation DC50 CDK12) ratio: ratio of IC50 CDK12 high ATP kinase assay to DC50 CDK12 degradation (IF, CAL-120)
T3 construct: endogenous in cells; host or cells: CAL-120 human breast cancer cells (DSMZ ACC 459)
In short: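 DC50 is the degrader concentration that halves nuclear CDK12 immunofluorescence relative to controls, measured by high-content imaging. CAL-120 cells were exposed to compound for 24 h at 37 °C before PFA fixation, and signal was normalized to DMSO and control wells.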

T1 sequence (O75909 whole entry): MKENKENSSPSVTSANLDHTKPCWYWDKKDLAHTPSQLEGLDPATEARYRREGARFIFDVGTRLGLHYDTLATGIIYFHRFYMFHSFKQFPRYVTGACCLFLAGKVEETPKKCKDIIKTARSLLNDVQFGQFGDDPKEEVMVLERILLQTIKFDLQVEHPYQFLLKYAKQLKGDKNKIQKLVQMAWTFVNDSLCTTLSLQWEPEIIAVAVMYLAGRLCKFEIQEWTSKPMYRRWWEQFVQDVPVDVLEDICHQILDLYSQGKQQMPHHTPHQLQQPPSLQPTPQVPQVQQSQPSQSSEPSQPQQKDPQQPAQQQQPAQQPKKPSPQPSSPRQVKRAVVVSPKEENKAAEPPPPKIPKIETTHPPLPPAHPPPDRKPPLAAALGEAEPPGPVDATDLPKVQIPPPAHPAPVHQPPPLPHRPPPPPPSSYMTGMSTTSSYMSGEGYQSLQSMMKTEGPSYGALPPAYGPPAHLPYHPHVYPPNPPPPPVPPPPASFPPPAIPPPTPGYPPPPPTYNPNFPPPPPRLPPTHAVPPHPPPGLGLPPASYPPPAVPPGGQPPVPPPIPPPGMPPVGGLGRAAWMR
T1 sequence (Q9NYV4 whole entry partner): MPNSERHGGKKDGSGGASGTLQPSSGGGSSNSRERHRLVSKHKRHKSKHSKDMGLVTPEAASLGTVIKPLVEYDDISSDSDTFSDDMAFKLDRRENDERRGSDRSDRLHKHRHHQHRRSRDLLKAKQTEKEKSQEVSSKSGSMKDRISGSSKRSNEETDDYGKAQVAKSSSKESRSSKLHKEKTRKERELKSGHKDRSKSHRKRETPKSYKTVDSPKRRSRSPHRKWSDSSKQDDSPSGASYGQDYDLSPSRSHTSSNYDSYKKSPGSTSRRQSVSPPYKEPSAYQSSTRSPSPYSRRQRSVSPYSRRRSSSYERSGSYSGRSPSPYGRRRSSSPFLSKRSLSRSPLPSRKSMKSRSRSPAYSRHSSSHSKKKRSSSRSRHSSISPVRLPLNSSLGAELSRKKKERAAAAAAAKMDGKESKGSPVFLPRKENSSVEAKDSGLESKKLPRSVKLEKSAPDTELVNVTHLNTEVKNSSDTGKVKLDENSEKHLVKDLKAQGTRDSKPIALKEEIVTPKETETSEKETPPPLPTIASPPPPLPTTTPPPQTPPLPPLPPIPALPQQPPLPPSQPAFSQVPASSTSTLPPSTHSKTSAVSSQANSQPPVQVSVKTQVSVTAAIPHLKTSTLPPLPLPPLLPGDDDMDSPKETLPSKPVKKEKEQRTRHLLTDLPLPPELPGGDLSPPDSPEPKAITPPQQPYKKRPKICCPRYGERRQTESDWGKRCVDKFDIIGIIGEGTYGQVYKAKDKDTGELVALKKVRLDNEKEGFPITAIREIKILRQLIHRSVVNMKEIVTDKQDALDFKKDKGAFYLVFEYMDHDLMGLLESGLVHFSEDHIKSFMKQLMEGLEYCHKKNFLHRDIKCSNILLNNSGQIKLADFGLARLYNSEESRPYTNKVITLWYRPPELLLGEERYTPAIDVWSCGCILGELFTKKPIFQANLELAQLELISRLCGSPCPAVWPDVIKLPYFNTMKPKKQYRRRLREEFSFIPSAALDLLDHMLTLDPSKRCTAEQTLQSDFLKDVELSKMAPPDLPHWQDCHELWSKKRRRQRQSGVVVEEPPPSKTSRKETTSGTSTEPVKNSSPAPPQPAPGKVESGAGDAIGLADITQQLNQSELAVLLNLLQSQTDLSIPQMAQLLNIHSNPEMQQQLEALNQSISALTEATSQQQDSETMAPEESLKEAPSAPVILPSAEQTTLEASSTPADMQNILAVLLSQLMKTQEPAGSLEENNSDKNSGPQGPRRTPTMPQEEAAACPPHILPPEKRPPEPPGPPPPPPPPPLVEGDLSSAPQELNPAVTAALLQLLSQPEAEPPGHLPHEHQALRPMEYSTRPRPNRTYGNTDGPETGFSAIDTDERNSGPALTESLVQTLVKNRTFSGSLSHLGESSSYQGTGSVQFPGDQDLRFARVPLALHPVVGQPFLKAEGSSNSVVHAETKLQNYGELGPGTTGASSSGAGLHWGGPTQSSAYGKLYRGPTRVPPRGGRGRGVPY
T2 sequence (P50750 whole entry): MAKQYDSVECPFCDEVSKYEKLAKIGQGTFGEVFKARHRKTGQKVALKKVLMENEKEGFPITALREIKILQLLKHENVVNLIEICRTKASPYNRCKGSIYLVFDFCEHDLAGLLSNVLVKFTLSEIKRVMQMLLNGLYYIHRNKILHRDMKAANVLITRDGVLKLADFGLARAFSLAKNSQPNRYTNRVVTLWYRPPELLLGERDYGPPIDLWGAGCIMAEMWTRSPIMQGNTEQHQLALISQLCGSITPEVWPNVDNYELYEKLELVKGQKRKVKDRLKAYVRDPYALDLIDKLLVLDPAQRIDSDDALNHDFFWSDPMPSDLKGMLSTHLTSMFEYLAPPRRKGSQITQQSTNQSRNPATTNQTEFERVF
T2 sequence (O60563 whole entry partner): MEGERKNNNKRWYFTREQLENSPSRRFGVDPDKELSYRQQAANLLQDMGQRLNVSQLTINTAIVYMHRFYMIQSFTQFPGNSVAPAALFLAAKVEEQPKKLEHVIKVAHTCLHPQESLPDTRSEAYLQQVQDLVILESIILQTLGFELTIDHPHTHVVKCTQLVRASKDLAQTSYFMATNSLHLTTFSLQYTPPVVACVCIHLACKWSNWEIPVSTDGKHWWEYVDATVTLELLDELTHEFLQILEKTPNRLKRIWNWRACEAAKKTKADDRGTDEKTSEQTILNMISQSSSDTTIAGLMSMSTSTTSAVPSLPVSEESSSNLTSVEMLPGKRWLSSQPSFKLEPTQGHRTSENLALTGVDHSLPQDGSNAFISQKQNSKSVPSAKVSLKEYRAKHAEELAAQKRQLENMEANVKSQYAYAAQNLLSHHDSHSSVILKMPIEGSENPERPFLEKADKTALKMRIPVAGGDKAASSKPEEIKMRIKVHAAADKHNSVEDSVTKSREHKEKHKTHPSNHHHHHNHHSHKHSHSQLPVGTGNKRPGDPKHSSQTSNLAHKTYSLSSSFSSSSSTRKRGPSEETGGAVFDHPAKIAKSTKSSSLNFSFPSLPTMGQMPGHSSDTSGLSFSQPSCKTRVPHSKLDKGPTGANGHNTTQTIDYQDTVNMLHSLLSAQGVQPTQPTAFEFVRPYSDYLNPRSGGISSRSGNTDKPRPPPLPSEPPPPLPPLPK
T3 sequence (Q9NYV4 whole entry): as the sequence (Q9NYV4 whole entry partner) above
T3 sequence (O75909 whole entry partner): as the sequence (O75909 whole entry) above

Structure (SMILES)	DC50 [1] [nM]	IC50 (CDK9/CycT1) [µM]	IC50 [2] [nM]	DC50 [3] [nM]	(IC50 CDK12 high ATP) to (Degradation DC50 CDK12) ratio [3]
C[C@@H]1CN(c2nc(NCc3nc4ccccc4[nH]3)n3ncc(Br)c3n2)CCN1 [Example 168, N-[(1H-benzimidazol-2-yl)methyl]-8-bromo-2-[(3R)-3-methylpiperazin-1-yl]pyrazolo[1,5-a][1,3,5]triazin-4-amine]	0.973	> 20	2.46	0.532	10872
OC[C@@H]1CCCCN1c1nc(NCc2nc3c(F)c(F)ccc3[nH]2)n2ncc(C3CC3)c2n1 [Example 184, [(2S)-1-(8-cyclopropyl-4-{[(4,5-difluoro-1H-benzimidazol-2-yl)methyl]amino}pyrazolo[1,5-a][1,3,5]triazin-2-yl)piperidin-2-yl]methanol]	0.929	1.64	3.89	1.75	8
COc1cccc2[nH]c(CNc3nc(N4C[C@@H](C)N[C@@H](C)C4)nc4c(C5CC5)cnn34)nc12 [Example 212, 8-cyclopropyl-2-[(3R,5S)-3,5-dimethylpiperazin-1-yl]-N-[(4-methoxy-1H-benzimidazol-2-yl)methyl]pyrazolo[1,5-a][1,3,5]triazin-4-amine]	0.47	> 20	5.49	1.09	3798
Fc1ccc2[nH]c(CNc3nc(N4CCNCC4)nc4c(C5CC5)cnn34)nc2c1F [Example 174, 8-cyclopropyl-N-[(4,5-difluoro-1H-benzimidazol-2-yl)methyl]-2-(piperazin-1-yl)pyrazolo[1,5-a][1,3,5]triazin-4-amine]	0.0976	> 20	0.872	0.645	1851
Cc1ccc2[nH]c(CNc3nc(N4C[C@H]5C[C@@H]4CO5)nc4c(C5CC5)cnn34)nc2c1 [Example 196, 8-cyclopropyl-N-[(5-methyl-1H-benzimidazol-2-yl)methyl]-2-[(1R,4R)-2-oxa-5-azabicyclo[2.2.1]heptan-5-yl]pyrazolo[1,5-a][1,3,5]triazin-4-amine]	2.29	> 20	4.27	1.9	8068
CN1CC[C@@H]2CN(c3nc(NCc4nc5ccccc5[nH]4)n4ncc(Br)c4n3)C[C@@H]21 [Example 217, N-[(1H-benzimidazol-2-yl)methyl]-8-bromo-2-[(3aR,6aR)-1-methylhexahydropyrrolo[3,4-b]pyrrol-5 (1H)-yl]pyrazolo[1,5-a][1,3,5]triazin-4-amine]	4.56	> 20	33.5	8.64	>2315
COc1cccc2[nH]c(CNc3nc(N4CCOCC4)nc4c(C5CC5)cnn34)nc12 [Example 213, 8-cyclopropyl-N-[(4-methoxy-1H-benzimidazol-2-yl)methyl]-2-morpholino-pyrazolo[1,5-a][1,3,5]triazin-4-amine]	1.55	> 20	15	2.11	497
Cc1ccc2[nH]c(CNc3nc(N4CCN(C)CC4)nc4c(C5CC5)cnn34)nc2c1 [Example 210, 8-cyclopropyl-N-[(5-methyl-1H-benzimidazol-2-yl)methyl]-2-(4-methylpiperazin-1-yl)pyrazolo[1,5-a][1,3,5]triazin-4-amine]	0.199	> 20	2.27	1.41	>14143
Fc1ccc2[nH]c(CNc3nc(N4CCOCC4)nc4c(C5CC5)cnn34)nc2c1 [Example 181, 8-cyclopropyl-N-[(5-fluoro-1H-benzimidazol-2-yl)methyl]-2-(morpholin-4-yl)pyrazolo[1,5-a][1,3,5]triazin-4-amine]	0.503	> 20	3.51	0.878	2179
C[C@@H]1CN(c2nc(NCc3nc4cc(F)ccc4[nH]3)n3ncc(C4CC4)c3n2)C[C@H](C)N1 [Example 175, 8-cyclopropyl-2-[(3R,5S)-3,5-dimethylpiperazin-1-yl]-N-[(5-fluoro-1H-benzimidazol-2-yl)methyl]pyrazolo[1,5-a][1,3,5]triazin-4-amine]	0.147	> 20	1.63	0.322	34272
Cc1ccc2[nH]c(CNc3nc(N4C[C@@H](C)N[C@@H](C)C4)nc4c(Br)cnn34)nc2c1 [Example 209, 8-bromo-2-[(3R,5S)-3,5-dimethylpiperazin-1-yl]-N-[(5-methyl-1H-benzimidazol-2-yl)methyl]pyrazolo[1,5-a][1,3,5]triazin-4-amine]	0.0619	> 20	1.67	0.471	14455
Brc1cnn2c(NCc3nc4ccccc4[nH]3)nc(N3CC4CCC(C3)N4)nc12 [Example 232, N-(1H-benzimidazol-2-ylmethyl)-8-bromo-2-(3,8-diazabicyclo[3.2.1]octan-3-yl)pyrazolo[1,5-a][1,3,5]triazin-4-amine]	1.06	> 20	4.92	> 3.6	–
COc1cccc2[nH]c(CNc3nc(N4CCN(C)CC4)nc4c(C5CC5)cnn34)nc12 [Example 197, 8-cyclopropyl-N-[(4-methoxy-1H-benzimidazol-2-yl)methyl]-2-(4-methylpiperazin-1-yl)pyrazolo[1,5-a][1,3,5]triazin-4-amine]	0.763	> 20	6.27	1.4	6827
Cc1ccc2[nH]c(CNc3nc(N4CCNCC4)nc4c(Br)cnn34)nc2c1 [Example 204, 8-bromo-N-[(5-methyl-1H-benzimidazol-2-yl)methyl]-2-(piperazin-1-yl)pyrazolo[1,5-a][1,3,5]triazin-4-amine]	0.0967	> 20	1.13	0.619	7019
C[C@@H]1CN(c2nc(NCc3nc4c(F)cccc4[nH]3)n3ncc(C4CC4)c3n2)C[C@H](C)N1 [Example 186, 8-cyclopropyl-2-[(3R,5S)-3,5-dimethylpiperazin-1-yl]-N-[(4-fluoro-1H-benzimidazol-2-yl)methyl]pyrazolo[1,5-a][1,3,5]triazin-4-amine]	0.16	> 20	1.49	0.226	12018
CCNc1nc(NCc2nc3ccccc3[nH]2)n2ncc(Br)c2n1 [Example 227, N4-(1H-benzimidazol-2-ylmethyl)-8-bromo-N2-ethyl-pyrazolo[1,5-a][1,3,5]triazine-2,4-diamine]	2.7	> 20	15.3	16.8	565
CN1CC2CCC1CN2c1nc(NCc2nc3ccccc3[nH]2)n2ncc(Br)c2n1 (stereo not shown) [Example 221, N-(1H-benzimidazol-2-ylmethyl)-8-bromo-2-(5-methyl-2,5-diazabicyclo[2.2.2]octan-2-yl)pyrazolo[1,5-a][1,3,5]triazin-4-amine]	0.41	> 20	11.8	4.68	1704
Cc1ccc2[nH]c(CNc3nc(N4C[C@@H]5CCCN[C@@H]5C4)nc4c(Br)cnn34)nc2c1 [Example 203, 8-bromo-N-[(5-methyl-1H-benzimidazol-2-yl)methyl]-2-[(4aS, 7aS)-octahydro-6H-pyrrolo[3,4-b]pyridin-6-yl]pyrazolo[1,5-a][1,3,5]triazin-4-amine]	0.119	> 20	1.19	0.64	13757
CN1CCN(c2nc(NCc3nc4ccccc4[nH]3)n3ncc(Br)c3n2)CC1 [Example 18, N-[(1H-benzimidazol-2-yl)methyl]-8-bromo-2-(4-methylpiperazin-1-yl)pyrazolo[1,5-a][1,3,5]triazin-4-amine]	1.39	> 20	11.4	2.98	>5268
